In brackets after ≈: the same amount, converted by molar mass. Where a SMILES comes first, the peptide text is derived from it.
Tests used:
[1] = tested on: Escherichia coli (ATCC 25922); assay: MIC assay in liquid medium (twofold dilutions) against E. coli; type: cell-based; details: lowest concentration in twofold dilutions with no growth; 5×10^5 CFU/ml, Müller-Hinton broth, 37°C, 18 hours, read by eye; duplicate or triplicate, min–max if variable
Description: (§1) Seventeen predicted and recovered peptides were de novo synthesized using solid-phase technology by CASLO Laboratory ApS (Lyngby, Denmark) and delivered as HPLC-purified (>95%) trifluoracetate (TFA) salts. The peptide salts were stored as 5.12 mM stock solutions in 0.01% (V/V) acetic acid/0.2% (m/V) BSA. Peptides were tested against Escherichia coli (ATCC 25922) and Pseudomonas aeruginosa (ATCC 15692), Staphylococcus aureus (ATCC 25923), Micrococcus luteus, Saccharomyces cerevisiae, a protozoan parasite (Trypanosoma brucei brucei), mouse (Mus musculus) red blood cells and mouse spleen tissue cultures (containing 50–60% B-cells, ∼25–30% T-cells, and 5% myeloid cells). All assays were performed in duplicate or triplicate.
(§2) Activity against the bacteria and fungus was measured by assessing the lowest peptide concentration in a series of twofold dilutions at which no growth was detected (known as the minimum inhibitory concentration, MIC). Bacterial and yeast cultures (5×10^5 colony forming units/ml) were prepared in Müller-Hinton (MH) broth and Luria-Bertani (LB) broth respectively and transferred to serial dilutions of peptides ranging from 512 or 256 µM down to 1 or 0.5 µM in 96-well polypropylene plates. After incubation at 37°C (bacteria) or 30°C (S. cerevisiae) for 18 hours, growth of the cultures was checked by eye. In addition to MIC, we determined minimum microbicidal concentrations (MMC) by inoculating samples of the MIC assays on agar plates lacking peptides and checking for overnight growth. In all cases, MIC and MMC were identical.

[2] = tested on: Pseudomonas aeruginosa (ATCC 15692); assay: MIC assay in liquid medium (twofold dilutions) against P. aeruginosa; type: cell-based; details: lowest concentration in twofold dilutions with no growth; 5×10^5 CFU/ml, Müller-Hinton broth, 37°C, 18 hours, read by eye; duplicate or triplicate, min–max if variable
Description: as §1, §2

[3] = tested on: Staphylococcus aureus (ATCC 25923); assay: MIC assay in liquid medium (twofold dilutions) against S. aureus; type: cell-based; details: lowest concentration in twofold dilutions with no growth; 5×10^5 CFU/ml, Müller-Hinton broth, 37°C, 18 hours, read by eye; duplicate or triplicate, min–max if variable
Description: as §1, §2

Micrococcus luteus = assay: MIC assay in liquid medium (twofold dilutions) against M. luteus; type: cell-based; details: lowest concentration in twofold dilutions with no growth; 5×10^5 CFU/ml, Müller-Hinton broth, 37°C, 18 hours, read by eye; duplicate or triplicate, min–max if variable
Description: as §1, §2

Saccharomyces cerevisiae = assay: MIC assay in liquid medium (twofold dilutions) against S. cerevisiae; type: cell-based; details: lowest concentration in twofold dilutions with no growth; 5×10^5 CFU/ml, Luria-Bertani broth, 30°C, 18 hours, read by eye; duplicate or triplicate, min–max if variable
Description: as §1, §2

[4] = tested on: Trypanosoma brucei brucei AnTat1.1 bloodstream parasites; assay: Trypanolytic activity (LC95, 30 minutes); type: cell-based; details: lowest concentration killing at least 95% of parasites after 30 minutes; PSG buffer with 5% FCS, light microscope count; min–max of repeated tests
Description: as §1
Activity against T. brucei parasites was assessed as the minimum concentration in a series of twofold dilutions required to kill 95% of parasites in 30 minutes (LC95). Frozen stabilates of Trypanosoma brucei brucei AnTat1.1 bloodstream parasites were expanded by infection of C57Black/6 mice (Janvier). Mice with systemic parasitaemia (typically 4–5 days post infection) were exsanguinated and parasites were purified from heparinized blood by DEAE-cellulose (DE52, Whatman) chromatography. Collected parasites were washed twice with Phosphate-Saline-Glucose buffer (PSG-buffer) and enumerated microscopically using a Bürker hematocytometer. The DEAE52-purified parasites (stock: 10^6 parasites/ml PSG buffer containing 5% FCS) were added to polypropylene 96-well plates containing the serial peptide dilutions to obtain total volumes of 200 µl. After incubation for 30 minutes, trypanolytic activity was assessed using a light microscope by calculating the percentage of dead parasites in a minimum of 200 counted cells.

mouse red blood cells = assay: Hemolysis of mouse red blood cells (HC50); type: cell-based; details: lowest concentration causing at least 50% hemolysis; mouse blood diluted 1/100 in RPMI, 37°C, 30 minutes, OD 550 nm; 100% = 1% Tween-20
Description: as §1
Activity against mouse red blood cells was examined by assessing the lowest peptide concentration in a series of twofold dilutions causing at least 50% hemolysis (HC50). Briefly, heparinized blood was obtained by cardiac puncture of mice euthanized via CO2. The blood was diluted 1/100 in RPMI and added to polypropylene 96-well plates containing the serial peptide dilutions to obtain total volumes of 100 µl. The plates were incubated at 37°C in a humidified atmosphere for 30 minutes and centrifuged at 1400 rpm for 2 minutes to pellet intact red blood cells allowing visual observation of hemolysis. Supernatants were subsequently transferred to 96-well flat-bottom plates to allow spectrophotometry using an ELISA reader (OD measured at 550 nm). The percentage of hemolyis for each peptide concentration was calculated as 100×(ODobs−OD0%)/(OD100%−OD0%), where ODobs is the OD measured for the peptide concentration, OD0% is the average OD in the absence of peptides (0% hemolysis), and OD100% is the average OD in the presence of 1% Tween-20 (100% hemolysis).

[5] = tested on: T-lymphocytes (naive C57Black/6 splenocytes); assay: Inhibition of Concanavalin A-induced T-cell proliferation in spleen cell cultures; type: cell-based, Mus musculus; details: lowest concentration causing at least 50% inhibition of Concanavalin A-induced T-cell proliferation; 2×10^5 splenocytes, 24 h + 18 h [3H]thymidine, 37°C; min–max if variable
Description: as §1
Activity against T-lymphocytes was assessed as the lowest peptide concentration in a series of twofold dilutions causing at least 50% inhibition of Concanavalin A-induced T-cell proliferation (IC50). Solutions containin 2×10^5 naive C57Black/6 splenocytes in the presence of 2.5 µg Concanavalin A were added to polypropylene 96-well plates containing the serial peptide dilutions to obtain total volumes of 100 µl. After incubation for 24 hours at 37°C in a humidified atmosphere, the cells were pulsed with [^3H]thymidine and incubated for an additional 18 hours. The amount of [^3H]thymidine incorporation was assessed by a β-counter as a measure of cell proliferation and the percentage of proliferation inhibition for each peptide concentration was calculated as 100×(1−(Tobs/T100%)), where Tobs is the [^3H]thymidine level measured for the peptide concentration, and T100% is the [^3H]thymidine level measured for Concanavalin-A-induced cell proliferation in the absence of peptide (representing 100% proliferation).

[6] = Hydrophobicity as % TFA/AcN solvent at HPLC elution time; type: physicochemical; details: chromatographic; expressed as % TFA/AcN solvent at HPLC elution time

CC(C)C[C@H](NC(=O)[C@H](CC(C)C)NC(=O)[C@H](CC(N)=O)NC(=O)[C@H](CO)NC(=O)CNC(=O)[C@@H](NC(=O)[C@H](CCCCN)NC(=O)[C@H](CC(C)C)NC(=O)CNC(=O)[C@@H](NC(=O)[C@H](CCCCN)NC(=O)[C@H](CC(C)C)NC(=O)[C@H](CC(C)C)NC(=O)[C@H](CO)NC(=O)CNC(=O)[C@H](CC(C)C)NC(=O)[C@H](CC(C)C)NC(=O)[C@@H](N)CC(N)=O)[C@@H](C)O)C(C)C)C(N)=O [CPF-St7] (H-NLLGSLLKTGLKVGSNLL-NH2; N-terminus assumed)
MIC E. coli [1]: 128 µM (≈ 235 µg/mL)
MIC P. aeruginosa [2]: >256 µM
MIC S. aureus [3]: 32 µM (≈ 58.9 µg/mL)
MIC M. luteus (Micrococcus luteus): 2 µM (≈ 3.68 µg/mL)
MIC S. cerevisiae (Saccharomyces cerevisiae): 64 µM (≈ 118 µg/mL)
LC95 T. brucei [4]: 2 to 64 µM
HC50 Erythrocytes (mouse red blood cells): 256 µM
IC50 [5]: 128 µM
Hydrophobicity [6]: 45,2 % TFA/AcN solvent

CC[C@H](C)[C@H](NC(=O)[C@H](C)NC(=O)[C@H](CCCCN)NC(=O)[C@H](C)NC(=O)[C@H](C)NC(=O)[C@H](CCCCN)NC(=O)CNC(=O)[C@H](Cc1ccccc1)NC(=O)[C@H](C)NC(=O)[C@@H](NC(=O)CNC(=O)[C@H](C)NC(=O)[C@H](CCCCN)NC(=O)[C@@H](NC(=O)[C@H](C)NC(=O)[C@H](CCSC)NC(=O)CN)[C@@H](C)O)[C@@H](C)O)C(=O)N[C@H](C(=O)NCC(=O)N[C@@H](C)C(=O)N[C@@H](C)C(=O)N[C@@H](CC(C)C)C(N)=O)[C@@H](C)CC [PGLa-St2] (H-GMATKAGTAFGKAAKAIIGAAL-NH2; N-terminus assumed)
MIC E. coli [1]: 16 µM (≈ 32.3 µg/mL)
MIC P. aeruginosa [2]: 128 µM (≈ 258 µg/mL)
MIC S. aureus [3]: >256 µM
MIC M. luteus (Micrococcus luteus): 2 µM (≈ 4.04 µg/mL)
MIC S. cerevisiae (Saccharomyces cerevisiae): 64 µM (≈ 129 µg/mL)
LC95 T. brucei [4]: 16 to 32 µM
HC50 Erythrocytes (mouse red blood cells): >256 µM
IC50 [5]: 64 µM
Hydrophobicity [6]: 42,6 % TFA/AcN solvent

CC(C)C[C@H](NC(=O)CNC(=O)[C@H](C)NC(=O)[C@@H](NC(=O)[C@H](CC(N)=O)NC(=O)[C@H](CO)NC(=O)[C@H](CC(C)C)NC(=O)[C@H](CC(C)C)NC(=O)CN)C(C)C)C(=O)N[C@@H](CC(C)C)C(=O)N[C@@H](CCCCN)C(=O)N[C@@H](CCC(N)=O)C(=O)N[C@@H](Cc1ccccc1)C(=O)N[C@@H](C)C(=O)N[C@@H](CCCCN)C(=O)NCC(=O)NCC(=O)N[C@H](C(=O)N[C@@H](CC(N)=O)C(=O)N[C@@H](C)C(=O)N[C@H](C(=O)N[C@@H](CC(C)C)C(=O)N[C@@H](CC(N)=O)C(=O)N1CCC[C@H]1C(=O)N[C@@H](CCCCN)C(=O)O)C(C)C)C(C)C [XPF-St7] (H-GLLSNVAGLLKQFAKGGVNAVLNPK-OH)
MIC E. coli [1]: 8 µM (≈ 20.1 µg/mL)
MIC P. aeruginosa [2]: 32 µM (≈ 80.3 µg/mL)
MIC S. aureus [3]: 128 µM (≈ 321 µg/mL)
MIC M. luteus (Micrococcus luteus): 1 µM (≈ 2.51 µg/mL)
MIC S. cerevisiae (Saccharomyces cerevisiae): 32 µM (≈ 80.3 µg/mL)
HC50 Erythrocytes (mouse red blood cells): >256 µM
IC50 [5]: 16 µM

CC[C@H](C)[C@H](NC(=O)[C@H](C)NC(=O)[C@H](CC(N)=O)NC(=O)[C@@H](NC(=O)CNC(=O)CNC(=O)[C@H](CCCCN)NC(=O)[C@H](C)NC(=O)[C@H](Cc1ccccc1)NC(=O)[C@H](CCCCN)NC(=O)[C@H](CCCCN)NC(=O)[C@H](C)NC(=O)[C@H](Cc1ccccc1)NC(=O)[C@H](CC(N)=O)NC(=O)[C@H](C)NC(=O)[C@@H](NC(=O)[C@H](CCCCN)NC(=O)[C@H](CO)NC(=O)[C@H](CCSC)NC(=O)[C@H](Cc1ccccc1)NC(=O)CN)C(C)C)C(C)C)C(=O)N[C@@H](CCSC)C(=O)N[C@@H](CC(N)=O)C(=O)N[C@@H](CCC(N)=O)C(=O)N[C@@H](CCCCN)C(=O)O [XPF-St8] (H-GFMSKVANFAKKFAKGGVNAIMNQK-OH)
MIC E. coli [1]: 1 µM (≈ 2.69 µg/mL)
MIC P. aeruginosa [2]: 4 µM (≈ 10.7 µg/mL)
MIC S. aureus [3]: 128 µM (≈ 344 µg/mL)
MIC M. luteus (Micrococcus luteus): 0,5 µM
MIC S. cerevisiae (Saccharomyces cerevisiae): 8 µM (≈ 21.5 µg/mL)
HC50 Erythrocytes (mouse red blood cells): 64 µM
IC50 [5]: 16 µM

CC[C@H](C)[C@H](NC(=O)[C@H](Cc1ccccc1)NC(=O)CNC(=O)[C@H](CCCCN)NC(=O)[C@H](C)NC(=O)[C@H](Cc1ccccc1)NC(=O)[C@H](CCCCN)NC(=O)[C@H](CCCCN)NC(=O)[C@H](C)NC(=O)[C@H](CO)NC(=O)[C@H](Cc1c[nH]cn1)NC(=O)[C@H](C)NC(=O)[C@@H](NC(=O)[C@H](CCC(=O)O)NC(=O)[C@H](CCCCN)NC(=O)[C@H](CC(C)C)NC(=O)CN)C(C)C)C(=O)N[C@@H](CO)C(=O)NCC(=O)N[C@@H](CC(C)C)C(=O)N[C@H](C(=O)NCC(=O)N[C@@H](CO)C(=O)O)[C@@H](C)O [magainin-St1] (H-GLKEVAHSAKKFAKGFISGLTGS-OH)
MIC E. coli [1]: 64 µM (≈ 149 µg/mL)
MIC P. aeruginosa [2]: >256 µM
MIC S. aureus [3]: >256 µM
MIC M. luteus (Micrococcus luteus): 32 µM (≈ 74.7 µg/mL)
MIC S. cerevisiae (Saccharomyces cerevisiae): 128 µM (≈ 299 µg/mL)
HC50 Erythrocytes (mouse red blood cells): >256 µM
IC50 [5]: > 256 µM

FIGALLGPLLNLLKa [PFQa-St1, homologue of pFQa encoded by xpf-St7]
Hydrophobicity [6]: 55,4 % TFA/AcN solvent

GMATKAGTVLGKVTKAIIGAALa [PGLa-St3, predicted S. tropicalis skin peptide encoded by pgla-St3]
Hydrophobicity [6]: 39,2 % TFA/AcN solvent

KLGFENFLVKALKTVMHVPTSPLLa [CPF-St6, predicted S. tropicalis skin peptide encoded by cpf-St6]
MIC E. coli [1]: 16 µM
MIC P. aeruginosa [2]: >256 µM
MIC S. aureus [3]: >256 µM
MIC M. luteus (Micrococcus luteus): 4 µM
MIC S. cerevisiae (Saccharomyces cerevisiae): 64 µM
LC95 T. brucei [4]: 16 to 256 µM
HC50 Erythrocytes (mouse red blood cells): 256 µM
IC50 [5]: 32 to 64 µM
Hydrophobicity [6]: 35,5 % TFA/AcN solvent

pQGLIGTLTAKQIKKa [levitide-St2, levitide-related peptide encoded by xpf-St5]
Hydrophobicity [6]: 35,0 % TFA/AcN solvent

pQGLMGTLISKQMKKa [levitide-St1, levitide-related peptide encoded by xpf-St4]
Hydrophobicity [6]: 31,6 % TFA/AcN solvent

Source: PMC3731216, “Origin and Functional Diversification of an Amphibian Defense Peptide Arsenal” (PLoS Genetics, 2013)
